Values quoted from earlier work in PMC8216436, “Molecular docking and statistical optimization of taurocholate-stabilized galactose anchored bilosomes for the enhancement of sofosbuvir absorption and hepatic relative targeting efficiency” (Drug Delivery, 2020).

Experiments:
P-glycoprotein (P-gp) = test system: P-glycoprotein (P-gp); parameters: method as in Shen et al., 2019; conditions: efflux from GIT membrane cells and hepatocytes; ref Shen et al., 2019
[1] = 2017
[2] = oral, ref Rodríguez-Torres, 2013, Kirby et al., 2015, Cuenca-Lopez et al.

## CC(C)OC(=O)[C@H](C)N[P@](=O)(OC[C@H]1O[C@@H](n2ccc(=O)[nH]c2=O)[C@](C)(F)[C@@H]1O)Oc1ccccc1 [Sofosbuvir]
High solubility and low permeability, ref Kirby et al., 2015
  biopharmaceutics classification system class: class III
Ref Amidon et al., 1995
  partition coefficient: about 1.6
  solubility: ≥ 2 mg/mL
Weak acid, ref Amidon et al., 1995
  pKa: 9.6
P-glycoprotein (P-gp)
  P-glycoprotein (P-gp) substrate: substrate
[1]; [2]
  administered dose absorbed through the portal circulation: 36.4%
  hepatic availability of the administered dose: 26.94%
  hepatic extraction: 74%
[1]; ref Bhatia et al., 2014, Reznik & Ashby
  volume of distribution: 127 L
